Data as given in patent US7056947B2, “Aza-peptide epoxides” (Georgia Tech Research Corp., priority 2002, dated 2006).

What was measured:
Format in all cases: biochemical
cathepsin B = cathepsin B (Homo sapiens, UniProt P07858); assay: Inhibition of cathepsin B, incubation method; settings: second-order rate constant, NI = no inhibition; for kinact/KI: pH 6, read-out: kobs/[I] cathepsin B
Description: (§1) The release of 7-amino-4-methylcoumarin was monitored (λex=360 nm, λem=465 nm) using a Tecan Spectra Fluor microplate reader. Pseudo first-order inactivation rate constants were obtained from plots of In vt/vo versus time.

papain = molecular target: T1, papain (Carica papaya, UniProt P00784); assay: Inhibition of papain, incubation method; settings: second-order rate constant, NI = no inhibition; for kinact/KI: pH 7.5, read-out: kobs/[I] papain
T1 sequence (P00784 134-345): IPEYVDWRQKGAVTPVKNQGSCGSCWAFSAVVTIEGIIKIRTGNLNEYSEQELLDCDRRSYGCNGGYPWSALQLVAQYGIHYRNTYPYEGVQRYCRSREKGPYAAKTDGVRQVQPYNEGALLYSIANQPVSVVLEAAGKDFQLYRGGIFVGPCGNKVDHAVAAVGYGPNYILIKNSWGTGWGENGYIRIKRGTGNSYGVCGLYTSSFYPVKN
Procedure: as §1
The incubation method was also used for papain. The inhibition incubation buffer for papain was 50 mM Hepes buffer at pH 7.5, containing 2.5 mM DTT and 2.5 mM EDTA. The assay used the substrate Z-Phe-Arg-pNA (53.7 μM) in the same buffer. The approximate concentration of papain added to the incubation buffer was 0.29 mg/mL. The release of p-nitroanilide was monitored at 405 nm with a Molecular Devices Thermomax microplate reader.

calpain = assay: Inhibition of calpain; settings: second-order rate constant; NI = no inhibition
caspase-1 = molecular target: T2, caspase-1 (Homo sapiens, UniProt P29466, D381E); assay: Caspase-1 progress curve assay; settings: D381E variant, substrate Ac-YVAD-AMC, 30° C.
T2 construct: His tag (N); made in house; host or cells: E. coli
T2 sequence (P29466 120-297 limits assumed): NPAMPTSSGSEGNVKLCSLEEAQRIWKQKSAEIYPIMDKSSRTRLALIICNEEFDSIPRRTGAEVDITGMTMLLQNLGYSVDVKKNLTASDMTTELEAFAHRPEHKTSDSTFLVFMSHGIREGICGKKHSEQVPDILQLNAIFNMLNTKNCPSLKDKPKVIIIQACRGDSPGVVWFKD
T2 sequence (P29466 317-404 D381E limits assumed): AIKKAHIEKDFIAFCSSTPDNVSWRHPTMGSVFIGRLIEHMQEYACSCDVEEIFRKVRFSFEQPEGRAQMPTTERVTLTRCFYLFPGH
Summary of the method: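 Autolysis-resistant D381E caspase-1 (E. coli, N-His tag), about 2 nM, added with 15 μM Ac-YVAD-AMC in HEPES/glycerol/EDTA buffer with 5 mM DTT to prewarmed compound at 30 °C. AMC fluorescence followed 900 s, triplicate curves fit to irreversible inactivation; kon (M^−1s^−1) from regression slope.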

caspase-3 = molecular target: T3, caspase-3 (Homo sapiens, UniProt P42574); assay: Caspase-3 progress curve assay; settings: substrate Z-DEVD-AFC; NI = no inhibition
T3 construct: made in house; host or cells: E. coli
T3 sequence (P42574 29-175 limits assumed): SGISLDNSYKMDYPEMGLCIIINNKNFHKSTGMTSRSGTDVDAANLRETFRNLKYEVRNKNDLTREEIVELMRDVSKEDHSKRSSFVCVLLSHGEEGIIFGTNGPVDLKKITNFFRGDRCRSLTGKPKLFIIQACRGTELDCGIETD
T3 sequence (P42574 176-277 limits assumed): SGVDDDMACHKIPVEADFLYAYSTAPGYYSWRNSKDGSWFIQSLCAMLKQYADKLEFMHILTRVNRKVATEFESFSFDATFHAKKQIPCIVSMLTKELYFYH
Summary of the method: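 E. coli-expressed caspases, pre-activated 10 min at 37° C with 10 mM DTT, were added to 100 μM Z-DEVD-AFC plus inhibitor in 50 mM Hepes, 100 mM NaCl, 0.1% CHAPS, 10% sucrose, 10 mM DTT, pH 7.4. AFC fluorescence (ex 400/em 505 nm) was followed; inhibition rates and equilibria came from progress curves.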

Row | Structure (SMILES) | kobs/[I] papain (papain) [M⁻¹ s⁻¹] | kinact/KI (cathepsin B) [M⁻¹ s⁻¹] | kinact/KI (papain) [M⁻¹ s⁻¹] | kobs/[I] calpain (calpain) [M⁻¹ s⁻¹] | other results
1 | CCOC(=O)[C@@H]1O[C@H]1C(=O)N(CCc1ccccc1)NC(=O)[C@H](CC(C)C)NC(C)=O (relative stereo) [Ac-Leu-AHph-trans-EP-COOEt, trans-3-(N^2-(N-Acetylleucyl)-N^1-phenylethylhydrazinocarbonyl)oxirane-2-carboxylic Acid Ethyl Ester] |  | 0.59 | 1.9 | 0.84 | 
2 | CCOC(=O)[C@@H]1O[C@H]1C(=O)N(CCc1ccccc1)NC(=O)OCc1ccccc1 (relative stereo) [Cbz-AHph-trans-EP-COOEt, trans-3-(N^2-(N-Benzyloxycarbonyl)-N^1-phenylethylhydrazinocarbonyl)oxirane-2-carboxylic Acid Ethyl Ester] | 18.8 |  |  | 2.44 | kobs/[I] cathepsin B (cathepsin B): 8.91 M⁻¹ s⁻¹
3 | CCOC(=O)[C@@H]1O[C@H]1C(=O)N(CC(C)C)NC(=O)OCc1ccccc1 (relative stereo) [Cbz-ALeu-trans-EP-COOEt, trans-3-(N^2-(N-Benzyloxycarbonyl)-N^1-isobutylhydrazinocarbonyl)oxirane-2-carboxylic Acid Ethyl Ester] | 16.1 |  |  | 1.75 | kobs/[I] cathepsin B (cathepsin B): 4.43 M⁻¹ s⁻¹
4 | CC(C)C[C@H](NC(=O)OCc1ccccc1)C(=O)NN(CCc1ccccc1)C(=O)[C@H]1O[C@@H]1C(=O)O [Cbz-Leu-AHph-(2S, 3S)-EP-COOH, (2S,3S)-3-(N^2-(N-Benzyloxycarbonyleucyl)-N^1-phenylethylhydrazinocarbonyl)oxirane-2-carboxylic Acid] |  |  |  | 2.12 | 
5 | CC(C)[C@H](NC(=O)CCc1ccccc1)C(=O)N[C@@H](C)C(=O)NN(CC(=O)O)C(=O)[C@@H]1O[C@H]1C(=O)OCc1ccccc1 (relative stereo) [23d (trans), trans-3-(N^2-(N-3-Phenylpropanoylvalylalanyl)-N^1-carboxylmethylhydrazinocarbonyl)oxirane-2-carboxylic Acid Benzyl Ester] |  | < 10 | < 10 |  | k2 caspase-1 (caspase-1): 18070 ± 2625 M⁻¹ s⁻¹; k2 caspase-3 (caspase-3): 680 ± 140 M⁻¹ s⁻¹
6 | CCOC(=O)[C@@H]1O[C@H]1C(=O)N(NCc1ccccc1)C(=O)OCc1ccccc1 (relative stereo) [Cbz-APhe-trans-EP-COOEt, trans-3-(N^2-Benzyl-N^1-benzyloxycarbonylhydrazinocarbonyl)oxirane-2-carboxylic Acid Ethyl Ester] |  | 1.8 | 8.5 |  | 
7 | CCOC(=O)CN(NC(=O)[C@H](C)NC(=O)[C@H](C)NC(=O)OCc1ccccc1)C(=O)[C@@H]1O[C@H]1C(=O)OCC (relative stereo) [Cbz-Ala-Ala-NHN(CH2COOEt)-trans-EP-COOEt, trans-3-(N^2-(N-Benzyloxycarbonylalanylalanyl)-N^1-ethoxycarbonylmethylhydrazinocarbonyl)oxirane-2-carboxylic Acid Ethyl Ester] |  | 2.53 | 8.17 |  | 

Second part, led by results:

Row | kobs/[I] papain (papain) [M⁻¹ s⁻¹] | kinact/KI (cathepsin B) [M⁻¹ s⁻¹] | kinact/KI (papain) [M⁻¹ s⁻¹] | Structure (SMILES) | kobs/[I] calpain (calpain) [M⁻¹ s⁻¹] | other results
8 | 6.37 |  |  | CCOC(=O)[C@@H]1O[C@H]1C(=O)N(CC(C)C)NC(=O)[C@H](CC(C)C)NC(=O)OCc1ccccc1 (relative stereo) [Cbz-Leu-ALeu-trans-EP-COOEt, trans-3-(N^2-(N-Benzyloxycarbonyleucyl)-N^1-isobutylhydrazinocarbonyl)oxirane-2-carboxylic Acid Ethyl Ester] | 3.09 | kobs/[I] cathepsin B (cathepsin B): 23.32 M⁻¹ s⁻¹
9 | 6.70 |  |  | CCOC(=O)[C@@H]1O[C@H]1C(=O)N(CC(C)C)NC(=O)C(CC(C)C)NC(=O)OCc1ccccc1 (stereo partly drawn) [Cbz-Leu-ALeu-(2R, 3R)-EP-COOEt, (2R,3R)-3-(N^2-(N-Benzyloxycarbonyleucyl)-N^1-isobutylhydrazinocarbonyl)oxirane-2-carboxylic Acid Ethyl Ester] | 1.45 | 
10 |  | 0.98 | 10.5 | CCOC(=O)[C@H]1O[C@@H]1C(=O)N(CC(C)C)NC(=O)[C@H](CC(C)C)NC(=O)[C@H](CC(C)C)NC(=O)OCc1ccccc1 [Cbz-Leu-Leu-ALeu-(2S, 3S)-EP-COOEt, (2S,3S)-3-(N^2-(N-Benzyloxycarbonylleucylleucyl)-N^1-isobutylhydrazinocarbonyl)oxirane-2-carboxylic Acid Ethyl Ester] | 2.48 | 
11 | 1.47 |  |  | CCN(NC(=O)[C@H](CC(C)C)NC(=O)OCc1ccccc1)C(=O)[C@@H]1O[C@H]1C(=O)O (relative stereo) [Cbz-Leu-AAbu-trans-EP-COOH, trans-3-(N-(N-Benzyloxycarbonyleucyl)-N^1-ethylhydrazinocarbonyl)oxirane-2-carboxylic Acid] | 0.57 | 
12 | 2.16 |  |  | CCOC(=O)[C@@H]1O[C@H]1C(=O)N(CCc1ccccc1)NC(=O)[C@H](CC(C)C)NC(=O)OCc1ccccc1 [Cbz-Leu-AHph-(2R, 3R)-EP-COOEt, (2R,3R)-3-(N^2-(N-Benzyloxycarbonyleucyl)-N^1-phenylethylhydrazinocarbonyl)oxirane-2-carboxylic Acid Ethyl Ester] | 2.12 | 
13 | 4.94 |  |  | CCOC(=O)[C@@H]1O[C@H]1C(=O)N(CC)NC(=O)C(CC(C)C)NC(=O)OCc1ccccc1 (relative stereo) [Cbz-Leu-AAbu-trans-EP-COOEt, trans-3-(N^2-(N-Benzyloxycarbonyleucyl)-N^1-ethylhydrazinocarbonyl)oxirane-2-carboxylic Acid Ethyl Ester] | 1.98 | 
14 | 1.03 |  |  | CCOC(=O)[C@@H]1O[C@@H]1C(=O)N(CCc1ccccc1)NC(=O)[C@H](CC(C)C)NC(=O)OCc1ccccc1 (relative stereo) [Cbz-Leu-AHph-cis-EP-COOEt, cis-3-(N-(N-Benzyloxycarbonyleucyl)-N^1-phenylethylhydrazinocarbonyl)oxirane-2-carboxylic Acid Ethyl Ester] | 1.09 | 
15 |  |  | 34.8 | CCOC(=O)[C@@H]1O[C@H]1C(=O)N(CC(C)C)NC(=O)[C@H](CC(C)C)NC(=O)[C@H](CC(C)C)NC(=O)OCc1ccccc1 (relative stereo) [Cbz-Leu-Leu-ALeu-trans-EP-COOEt, trans-3-(N^2-(N-Benzyloxycarbonylleucylleucyl)-N^1-isobutylhydrazinocarbonyl)oxirane-2-carboxylic Acid Ethyl Ester] | 2.65 | 
16 | 0.91 |  |  | CCOC(=O)[C@@H]1O[C@H]1C(=O)N(CC(C)C)NC(=O)[C@H](Cc1ccccc1)NC(=O)OCc1ccccc1 (relative stereo) [Cbz-Phe-ALeu-trans-EP-COOEt, trans-3-(N^2-(N-3-Benzyloxyphenylalanyl)-N^1-isobutylhydrazinocarbonyl)oxirane-2-carboxylic Acid Ethyl Ester] |  | kobs/[I] cathepsin B (cathepsin B): 3.61 M⁻¹ s⁻¹
17 |  | 1.3 | 0.9 | CCOC(=O)[C@@H]1O[C@H]1C(=O)N(CCC(N)=O)NC(=O)[C@H](Cc1ccccc1)NC(=O)[C@H](CC(C)C)NC(=O)OCc1ccccc1 (relative stereo) [Cbz-Leu-Phe-AGln-trans-EP-COOEt, trans-3-(N^2-(N-Benzyloxycarbonylleucylphenylalanyl)-N^1-carbamoylethylhydrazinocarbonyl)oxirane-2-carboxylic Acid Ethyl Ester] |  | 
